Data as given in US8703796B2, “3H-imidazo [4, 5-B] pyridine-6-carboxamides as anti-inflammatory agents” (Boehringer Ingelheim International GmbH, priority 2008, dated 2014).

Molecular target: T1, recombinant human mPGES-1 (Homo sapiens, UniProt O14684)
T1 construct: made in house; host or cells: Rosetta E. coli (microsomal/membrane fraction)
T1 sequence (O14684 1-152): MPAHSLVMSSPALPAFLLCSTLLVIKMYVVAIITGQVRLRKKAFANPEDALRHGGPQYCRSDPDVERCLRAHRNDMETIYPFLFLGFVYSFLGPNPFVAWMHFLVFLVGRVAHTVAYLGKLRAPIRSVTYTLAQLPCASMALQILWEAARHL
Assay: mPGES-1 inhibition, HTRF detection of PGE2
Format: biochemical
Procedure: Microsomes from Rosetta E. coli bacteria expressing recombinant human mPGES-1 is dissolved in 0.1 M KPi pH 7.4 buffer containing 2.5 mM GSH. 50 μl of the enzyme is subsequently dispensed in a 384-well plate. 0.5 μl of the inhibitor dissolved in DMSO at is thereafter added to each well and incubated for 25 minutes at room temperature. Subsequently, 2 μl of PGH2 dissolved in an appropriate solvent is added to each well and after one minute the acidified stop solution containing FeCl2 is added. 4 μl of the total volume is transferred to a separate plate and diluted 750-fold in two separate steps before HTRF detection of PGE2.
The HTRf detection is performed by the use of a commercially available kit from CisBio essentially according to the manufacturer's protocol. Briefly, 10 μl of the diluted sample is transferred to a white 384-well plate. 5 μl of d2 and 5 μl Eu3+-Cryptate labeled anti-PGE2 is added to each well containing samples by the use of a Multidrop. The plate is covered with a plastic self-adhesive film, centrifuged at 1200 rpm for 1 minute and subsequently stored at +4° C. over night.
After over night incubation the fluorescence is measured by the use of an appropriate microplate reader. The fluorescence of europium cryptate, and d2 are measured using the following excitation and emission wavelength, europium cryptate: λmax^ex=307 nm, λmax^em=620 nm and d2: λmax^ex=620 nm, λmax^em=665 nm), respectively. The extent of the specific FRET is measured as a ratio of the emission intensity at 665 nm vs. that at 620 nm. A standard curve using synthetic PGE2 is used to quantify the amount of PGE2 in unknown samples.

| inhibition at 10 µM [%] | inhibition at 1 µM [%] | SMILES |
| --- | --- | --- |
| 97 |  | Cn1c(Nc2c(Cl)cc(F)cc2Cl)nc2cc(C(=O)N[C@H]3CC[C@H](C(F)(F)F)CC3)c(OCC(F)(F)F)nc21 [Example 814, 2-(2,6-Dichloro-4-fluoro-phenylamino)-5-(2,2,2-trifluoro-ethoxy)-N-(trans-4-trifluoromethyl-cyclohexyl)-3-methyl-3H-imidazo[4,5-b]pyridine-6-carboxamide] |
|  | 99 | O=C(N[C@H]1CC[C@H](C(F)(F)F)CC1)c1cc2nc(Nc3c(F)cccc3C(F)(F)F)[nH]c2nc1OCC(F)F [Example 781, 2-(2-Fluoro-6-trifluoromethyl-phenylamino)-5-(2,2-difluoro-ethoxy)-N-(trans-4-trifluoromethyl-cyclohexyl)-3H-imidazo[4,5-b]pyridine-6-carboxamide] |
| 98 |  | Cc1ccnc(Br)c1Nc1nc2cc(C(=O)N[C@H]3CC[C@H](C(F)(F)F)CC3)c(OCC(F)F)nc2[nH]1 [Example 795, 2-(2-Bromo-4-methyl-pyridin-3-ylamino)-5-(2,2-difluoro-ethoxy)-N-(trans-4-trifluoromethyl-cyclohexyl)-3H-imidazo[4,5-b]pyridine-6-carboxamide] |
| 92 |  | CN(C)CCOc1nc2c(cc1C(=O)N[C@H]1CC[C@H](C(F)(F)F)CC1)nc(Nc1c(Cl)cc(F)cc1Cl)n2C [Example 865, 2-(2,6-Dichloro-4-fluoro-phenylamino)-5-(2-dimethylamino-ethoxy)-N-(trans-4-trifluoromethyl-cyclohexyl)-3-methyl-3H-imidazo[4,5-b]pyridine-6-carboxamide] |
| 100 |  | O=C(Nc1ccc(Br)cc1)c1cnc2[nH]c(Nc3c(Cl)cccc3Cl)nc2c1 [Example 401, N-(4-Bromophenyl)-2-(2,6-dichlorophenylamino)-3H-imidazo[4,5-b]pyridine-6-carboxamide] |
| 100 |  | Cn1c(Nc2c(Cl)cncc2Cl)nc2cc(C(=O)NCc3ncccc3C(F)(F)F)c(OC3CCOC3)nc21 (centres unmarked) [Example 847, 2-(3,5-Dichloro-pyridin-4-ylamino)-5-(tetrahydrofuran-3-yl-oxy)-N-((3-trifluoromethyl-pyridin-2-yl)-methyl)-3-methyl-3H-imidazo[4,5-b]pyridine-6-carboxamide] |
| 99 |  | O=C(Nc1cc(C(F)(F)F)ccn1)c1cc2nc(Nc3c(Cl)cncc3Cl)[nH]c2nc1OCC(F)F [Example 803, 2-(3,5-Dichloro-pyridin-4-ylamino)-5-(2,2-difluoro-ethoxy)-N-(4-trifluoromethyl-pyridin-2-yl)-3H-imidazo[4,5-b]pyridine-6-carboxamide] |
| 96 |  | CCCC[C@H](C)NC(=O)c1cnc2c(c1)nc(Nc1c(Cl)cccc1Cl)n2C [Example 527, (S)-2-(2,6-Dichlorophenylamino)-N-(hex-2-yl)-3-methyl-3H-imidazo[4,5-b]pyridine-6-carboxamide] |
| 100 |  | O=C(NCc1ncccc1C(F)(F)F)c1cc2nc(Nc3c(Cl)cncc3Cl)[nH]c2nc1OCC(F)(F)F [Example 855, 2-(3,5-Dichloro-pyridin-4-ylamino)-5-(2,2,2-trifluoro-ethoxy)-N-((3-trifluoromethyl-pyridin-2-yl)-methyl)-3H-imidazo[4,5-b]pyridine-6-carboxamide] |
|  | 100 | O=C(Nc1ccc(Br)cc1)c1cc2nc(Nc3c(F)cccc3C(F)(F)F)[nH]c2nc1OCC(F)F [Example 774, N-(4-Bromo-phenyl)-2-(2-fluoro-6-trifluoromethyl-phenylamino)-5-(2,2-difluoroethoxy)-3H-imidazo[4,5-b]pyridine-6-carboxamide] |
| 97 |  | CC(C)[C@H]1CC[C@H](NC(=O)c2cnc3c(c2)nc(Nc2c(Cl)cccc2Cl)n3C)CC1 [Example 400, 2-(2,6-Dichlorophenylamino)-N-((1r,4r)-4-isopropylcyclohexyl)-3-methyl-3H-imidazo[4,5-b]pyridine-6-carboxamide] |
| 100 |  | Cn1c(Nc2c(Cl)cncc2Cl)nc2cc(C(=O)Nc3cc(C(F)(F)F)ccn3)c(OCC(F)F)nc21 [Example 836, 2-(3,5-Dichloro-pyridin-4-ylamino)-5-(2,2-difluoro-ethoxy)-N-(4-trifluoromethyl-pyridin-2-yl)-3-methyl-3H-imidazo[4,5-b]pyridine-6-carboxamide] |
|  | 100 | Cn1c(Nc2ccccc2C(F)(F)F)nc2cc(C(=O)Nc3ccc(Br)cc3)c(OCC(F)F)nc21 [Example 772, N-(4-Bromo-phenyl)-2-(2-trifluoromethyl-phenylamino)-5-(2,2-difluoroethoxy)-3-methyl-3H-imidazo[4,5-b]pyridine-6-carboxamide] |
| 100 |  | Cn1c(Nc2c(Cl)cccc2Cl)nc2cc(C(=O)NC3CCC4(CC4)C3)cnc21 (centres unmarked) [Example 506, 2-(2,6-Dichlorophenylamino)-3-methyl-N-(spiro[2.4]heptan-5-yl)-3H-imidazo[4,5-b]pyridine-6-carboxamide] |
| 100 |  | Cn1c(Nc2c(F)cccc2Cl)nc2cc(C(=O)Nc3ccc(Br)cc3)cnc21 [Example 480, N-(4-Bromophenyl)-2-(2-chloro-6-fluorophenylamino)-3-methyl-3H-imidazo[4,5-b]pyridine-6-carboxamide] |
| 99 |  | CCCC(CCC)NC(=O)c1cnc2c(c1)nc(Nc1c(Cl)cccc1Cl)n2C [Example 473, 2-(2,6-Dichlorophenylamino)-N-(hept-4-yl)-3-methyl-3H-imidazo[4,5-b]pyridine-6-carboxamide] |
| 100 |  | COCCOc1nc2[nH]c(Nc3c(Cl)cncc3Cl)nc2cc1C(=O)Nc1cc(C(F)(F)F)ccn1 [Example 808, 2-(3,5-Dichloro-pyridin-4-ylamino)-5-(2-methoxy-ethoxy)-N-(4-trifluoromethyl-pyridin-2-yl)-3H-imidazo[4,5-b]pyridine-6-carboxamide] |
| 100 |  | Cc1ccnc(C)c1Nc1nc2cc(C(=O)N[C@H]3CC[C@H](C(F)(F)F)CC3)c(OCC(F)F)nc2[nH]1 [Example 794, 2-(2,4-Dimethyl-pyridin-3-ylamino)-5-(2,2-difluoro-ethoxy)-N-(trans-4-trifluoromethyl-cyclohexyl)-3H-imidazo[4,5-b]pyridine-6-carboxamide] |
| 100 |  | CCCCCCCNC(=O)c1cnc2c(c1)nc(Nc1c(Cl)cccc1Cl)n2C [Example 448, 2-(2,6-Dichlorophenylamino)-N-heptyl-3-methyl-3H-imidazo[4,5-b]pyridine-6-carboxamide] |
| 100 |  | COCCOc1nc2[nH]c(Nc3c(Cl)cc(F)cc3Cl)nc2cc1C(=O)N[C@H]1CC[C@H](C(F)(F)F)CC1 [Example 867, 2-(2,6-Dichloro-4-fluoro-phenylamino)-5-(2-methoxy-ethoxy)-N-(trans-4-trifluoromethyl-cyclohexyl)-3H-imidazo[4,5-b]pyridine-6-carboxamide] |
| 100 |  | CC1(C)CCC(NC(=O)c2cnc3[nH]c(Nc4c(F)cccc4Cl)nc3c2)CC1 [Example 466, 2-(2-Chloro-6-fluorophenylamino)-N-(4,4-dimethylcyclohexyl)-3H-imidazo[4,5-b]pyridine-6-carboxamide] |
|  | 100 | Cn1c(Nc2c(F)cccc2Cl)nc2cc(C(=O)Nc3ccc(Br)cc3)c(OCC(F)F)nc21 [Example 773, N-(4-Bromo-phenyl)-2-(2-fluoro-6-chloro-phenylamino)-5-(2,2-difluoroethoxy)-3-methyl-3H-imidazo[4,5-b]pyridine-6-carboxamide] |
| 100 |  | CC(C)(C)[C@H]1CC[C@H](NC(=O)c2cnc3[nH]c(Nc4c(Cl)cccc4Cl)nc3c2)CC1 [Example 379, N-((1r,4r)-4-tert.-Butylcyclohexyl)-2-(2,6-dichlorophenylamino)-3H-imidazo[4,5-b]pyridine-6-carboxamide] |

| SMILES | inhibition at 10 µM [%] | inhibition at 1 µM [%] |
| --- | --- | --- |
| O=C(NCC(F)(F)C(F)(F)C(F)(F)C(F)(F)F)c1cc2nc(Nc3c(Cl)cc(F)cc3Cl)[nH]c2nc1OCC(F)F [Example 825, 2-(2,6-Dichloro-4-fluoro-phenylamino)-5-(2,2-difluoro-ethoxy)-N-(2,2,3,3,4,4,5,5,5-nonafluoropentyl)-3H-imidazo[4,5-b]pyridine-6-carboxamide] | 98 |  |
| O=C(NCC(F)(F)C(F)(F)C(F)(F)C(F)(F)F)c1cc2nc(Nc3c(Cl)cncc3Cl)[nH]c2nc1OC1CCOC1 (centres unmarked) [Example 792, 2-(3,5-Dichloro-pyridin-4-ylamino)-5-(tetrahydrofuran-3-yl-oxy)-N-(2,2,3,3,4,4,5,5,5-nonafluoro-pentyl)-3H-imidazo[4,5-b]pyridine-6-carboxamide] | 96 |  |
| Cn1c(Nc2c(Cl)cncc2Cl)nc2cc(C(=O)NCC(F)(F)C(F)(F)C(F)(F)C(F)(F)F)c(OCCF)nc21 [Example 834, 2-(3,5-Dichloro-pyridin-4-ylamino)-5-(2-fluoro-ethoxy)-N-(2,2,3,3,4,4,5,5,5-nonafluoropentyl)-3-methyl-3H-imidazo[4,5-b]pyridine-6-carboxamide] | 99 |  |
